25 molecules from patent US8377974B2 (Millennium Pharmaceuticals, Inc., priority 2004, dated 2013) can be followed below.

A value given as a limit tells only on which side of the number the result lay.

In this assay the target is T1, human plasma protein factor Xa (Homo sapiens, UniProt P00742).
T1 construct: measure proteolytic activity of the enzyme (factor Xa); purchased Haematologic Technologies (Essex Junction, Vt.); host or cells: human plasma
T1 sequence (P00742 235-488 limits assumed): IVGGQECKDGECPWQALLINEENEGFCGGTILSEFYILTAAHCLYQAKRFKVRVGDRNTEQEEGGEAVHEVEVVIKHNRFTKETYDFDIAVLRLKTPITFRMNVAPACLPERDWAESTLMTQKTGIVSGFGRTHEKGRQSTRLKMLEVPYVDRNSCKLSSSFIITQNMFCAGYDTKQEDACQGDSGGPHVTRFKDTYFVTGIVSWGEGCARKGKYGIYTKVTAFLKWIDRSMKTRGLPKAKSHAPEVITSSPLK
T1 sequence (P00742 41-179 partner limits assumed): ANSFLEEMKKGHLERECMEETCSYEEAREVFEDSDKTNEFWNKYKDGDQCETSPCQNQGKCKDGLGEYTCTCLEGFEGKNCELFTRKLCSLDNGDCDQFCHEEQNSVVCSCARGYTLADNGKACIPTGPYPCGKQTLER
Kind of assay: Factor Xa IC50 determination: cleavage of paranitroanilide substrate S-2765 in 96-well plates. The format is biochemical. As to conditions: fXa 1 nM, S-2765 100 μM, Tris buffered saline pH 7.4, room temperature. The method in brief:
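Initial rates of S-2765 (100 μM final) cleavage, read at 405 nm for 2 min, fitted with a four-parameter equation to give IC50. Enzyme: 1 nM human plasma fXa, 5 min room-temperature preincubation with inhibitor (0.01 nM–10 μM) in 20 mM Tris, 150 mM NaCl, 5 mM CaCl2, 0.1% BSA, 5% DMSO, pH 7.4; duplicates.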
On to `COc1ccc(Oc2cc(C(=N)N(C)C)ccc2-c2cc(CNC(=O)c3ccc(Cl)s3)on2)cc1` [Example 133, 5-Chloro-thiophene-2-carboxylic acid {3-[4-(N,N-dimethyl-carbamimidoyl)-2-(4-methoxy-phenoxy)-phenyl]-isoxazol-5-ylmethyl}-amide], for which the IC50 (commonly the concentration that inhibits the measured activity by half) was at most 100 nM.

For `COc1ccc(Oc2cc(C3=NCCN3C)ccc2-c2cc(CNC(=O)c3ccc(Cl)s3)on2)cc1` [Example 134, 5-Chloro-thiophene-2-carboxylic acid {3-[2-(4-methoxy-phenoxy)-4-(1-methyl-4,5-dihydro-1H-imidazol-2-yl)-phenyl]-isoxazol-5-ylmethyl}-amide], the IC50 is at most 100 nM. To `COc1ccc(Oc2cc(C(=N)N3CCCC3)ccc2-c2cc(CNC(=O)c3ccc(Cl)s3)on2)cc1` [Example 135, 5-Chloro-thiophene-2-carboxylic acid {3-[4-(imino-pyrrolidin-1-yl-methyl)-2-(4-methoxy-phenoxy)-phenyl]-isoxazol-5-ylmethyl}-amide] belongs at most 100 nM; to `CSc1cc(C(=N)N(C)C)ccc1C1=NOC(CNC(=O)c2ccc(Cl)s2)C1` (stereo not shown) [Example 136, 5-Chloro-thiophene-2-carboxylic acid {3-[4-(N,N-dimethyl-carbamimidoyl)-2-methylsulfanyl-phenyl]-4,5-dihydro-isoxazol-5-ylmethyl}-amide], at most 100 nM.

Turning to `CSc1cc(C2=NCCN2C)ccc1C1=NOC(CNC(=O)c2ccc(Cl)s2)C1` (stereo not shown) [Example 137, 5-Chloro-thiophene-2-carboxylic acid {3-[4-(1-methyl-4,5-dihydro-1H-imidazol-2-yl)-2-methylsulfanyl-phenyl]-4,5-dihydro-isoxazol-5-ylmethyl}-amide], the IC50 is at most 100 nM. For `CSc1cc(C(=N)N2CCCC2)ccc1C1=NOC(CNC(=O)c2ccc(Cl)s2)C1` (stereo not shown) [Example 138, 5-Chloro-thiophene-2-carboxylic acid {3-[4-(imino-pyrrolidin-1-yl-methyl)-2-methylsulfanyl-phenyl]-4,5-dihydro-isoxazol-5-ylmethyl}-amide], the IC50 was at most 100 nM. `CSc1cc(C(=N)N2CCCCC2)ccc1C1=NOC(CNC(=O)c2ccc(Cl)s2)C1` (stereo not shown) [Example 139, 5-Chloro-thiophene-2-carboxylic acid {3-[4-(imino-piperidin-1-yl-methyl)-2-methylsulfanyl-phenyl]-4,5-dihydro-isoxazol-5-ylmethyl}-amide] came in with an IC50 of at most 100 nM. Molecule `CSc1cc(C(=N)N(C)C)ccc1-c1cc(CNC(=O)c2ccc(Cl)s2)on1` [Example 140, 5-Chloro-thiophene-2-carboxylic acid {3-[4-(N,N-dimethyl-carbamimidoyl)-2-methylsulfanyl-phenyl]-isoxazol-5-ylmethyl}-amide] displayed an IC50 of at most 100 nM.

`CSc1cc(C2=NCCN2C)ccc1-c1cc(CNC(=O)c2ccc(Cl)s2)on1` [Example 141, 5-Chloro-thiophene-2-carboxylic acid {3-[4-(1-methyl-4,5-dihydro-1H-imidazol-2-yl)-2-methylsulfanyl-phenyl]-isoxazol-5-ylmethyl}-amide] showed a 50% inhibitory concentration (IC50) of at most 100 nM. Molecule `CSc1cc(C(=N)N2CCCC2)ccc1-c1cc(CNC(=O)c2ccc(Cl)s2)on1` [Example 142, 5-Chloro-thiophene-2-carboxylic acid {3-[4-(imino-pyrrolidin-1-yl-methyl)-2-methylsulfanyl-phenyl]-isoxazol-5-ylmethyl}-amide] came in with an IC50 of at most 100 nM. To `CSc1cc(C(=N)N2CCCCC2)ccc1-c1cc(CNC(=O)c2ccc(Cl)s2)on1` [Example 143, 5-Chloro-thiophene-2-carboxylic acid {3-[4-(imino-piperidin-1-yl-methyl)-2-methylsulfanyl-phenyl]-isoxazol-5-ylmethyl}-amide] belongs at least 500 nM; to `O=C(NCC1CC(c2ccccc2)=NO1)c1ccc(Cl)s1` (stereo not shown) [Example 144, 5-Chloro-thiophene-2-carboxylic acid (3-phenyl-4,5-dihydro-isoxazol-5-ylmethyl)-amide], at least 500 nM; to `CC1(CNC(=O)c2ccc(Cl)s2)CC(c2ccccc2)=NO1` (stereo not shown) [Example 145, 5-Chloro-thiophene-2-carboxylic acid (5-methyl-3-phenyl-4,5-dihydro-isoxazol-5-ylmethyl)-amide], at least 500 nM.

`O=C(NCc1cc(-c2ccccc2)no1)c1ccc(Cl)s1` [Example 146, 5-Chloro-thiophene-2-carboxylic acid (3-phenyl-isoxazol-5-ylmethyl)-amide]: the IC50 is at least 500 nM. Consider `Cc1ccc(C2=NOC(CNC(=O)c3ccc(Cl)s3)C2)cc1` (stereo not shown) [Example 147, 5-Chloro-thiophene-2-carboxylic acid (3-p-tolyl-4,5-dihydro-isoxazol-5-ylmethyl)-amide], for which the IC50 is at least 500 nM. Consider `Cc1ccc(C2=NOC(C)(CNC(=O)c3ccc(Cl)s3)C2)cc1` (stereo not shown) [Example 148, 5-Chloro-thiophene-2-carboxylic acid (5-methyl-3-p-tolyl-4,5-dihydro-isoxazol-5-ylmethyl)-amide], for which the IC50 is at least 500 nM.

In turn, `Cc1ccc(-c2cc(CNC(=O)c3ccc(Cl)s3)on2)cc1` [Example 149, 5-Chloro-thiophene-2-carboxylic acid (3-p-tolyl-isoxazol-5-ylmethyl)-amide] yielded an IC50 of at least 500 nM. Take `COc1ccc(C2=NOC(CNC(=O)c3ccc(Cl)s3)C2)cc1` (stereo not shown) [Example 150, 5-Chloro-thiophene-2-carboxylic acid [3-(4-methoxy-phenyl)-4,5-dihydro-isoxazol-5-ylmethyl]-amide]: the IC50 is at least 500 nM. The molecule `COc1ccc(C2=NOC(C)(CNC(=O)c3ccc(Cl)s3)C2)cc1` (stereo not shown) [Example 151, 5-Chloro-thiophene-2-carboxylic acid [3-(4-methoxy-phenyl)-5-methyl-4,5-dihydro-isoxazol-5-ylmethyl]-amide] gave an IC50 of at least 500 nM.

Take `COc1ccc(-c2cc(CNC(=O)c3ccc(Cl)s3)on2)cc1` [Example 152, 5-Chloro-thiophene-2-carboxylic acid [3-(4-methoxy-phenyl)-isoxazol-5-ylmethyl]-amide]: the IC50 is at least 500 nM. Consider `O=C(NCC1CC(c2ccc(Cl)cc2)=NO1)c1ccc(Cl)s1` (stereo not shown) [Example 153, 5-Chloro-thiophene-2-carboxylic acid [3-(4-chloro-phenyl)-4,5-dihydro-isoxazol-5-ylmethyl]-amide], for which the IC50 was at least 500 nM. Molecule `CC1(CNC(=O)c2ccc(Cl)s2)CC(c2ccc(Cl)cc2)=NO1` (stereo not shown) [Example 154, 5-Chloro-thiophene-2-carboxylic acid [3-(4-chloro-phenyl)-5-methyl-4,5-dihydro-isoxazol-5-ylmethyl]-amide] returned a concentration for half-maximal inhibition (IC50) of at least 500 nM. To `O=C(NCc1cc(-c2ccc(Cl)cc2)no1)c1ccc(Cl)s1` [Example 155, 5-Chloro-thiophene-2-carboxylic acid [3-(4-chloro-phenyl)-isoxazol-5-ylmethyl]-amide] belongs at least 500 nM. `COC(=O)c1ccc(C2=NOC(CNC(=O)c3ccc(Cl)s3)C2)cc1` (stereo not shown) [Example 156, 4-(5-{[(5-Chloro-thiophene-2-carbonyl)-amino]-methyl}-4,5-dihydro-isoxazol-3-yl)-benzoic acid methyl ester] returned an IC50 of at least 500 nM. `COC(=O)c1ccc(-c2cc(CNC(=O)c3ccc(Cl)s3)on2)cc1` [Example 157, 4-(5-{[(5-Chloro-thiophene-2-carbonyl)-amino]-methyl}-isoxazol-3-yl)-benzoic acid methyl ester] yielded an IC50 of at least 500 nM.
